Measurements as given in US20230255970A1, “COMPOSITIONS AND METHODS FOR TREATING PROLIFERATIVE DISEASES” (The Broad Institute, Inc., priority 2020, published 2023).

Assays:
[1] = tested on: PPARG; assay: PPARG reporter gene assay (FABP4-NanoLuc, RT112/84 bladder cancer cell line); type: cell-based; details: absence or presence of Rosiglitazone
Procedure: These NanoLuc gene cloned RT112/84 cells were plated in 384-well plates at ˜10,000 cells/well. Cells were dosed with indicated compounds in the absence or presence of EC50 of PPARG agonist, rosiglitazone, using an HP D300 digital dispenser. The following day nuclei were counted for normalization (IncuCyte S3, Essen Bioscience) and the reporter activity was evaluated using the NanoGlo Luciferase Assay System (Promega). Normalized data is reported as NanoGlo arbitrary light units divided by cell number. PPARG agonist, rosiglitazone, and inhibitor, T0070907, were obtained from Tocris and included as controls.

[2] = tested on: rat cortical neurons; assay: TMRE staining (mitochondrial membrane potential) in rat cortical neurons; type: cell-based; details: 10 μM
Procedure: High content mitochondrial motility screen: Mitochondrial motility was measured as described in Shlevkov, E. et al., Cell Rep. […] Briefly, we plated E18 rat cortical neurons in the middle 60 wells of 96 well plates (Greiner)—40,000 cells per well in 150 μl enriched Neurobasal media. Neurons were transfected with mito-DsRed at DIV7 using Lipofectamine2000 (Life Technologies). […] At DIV9, test compounds were added into wells to achieve a final concentration of 10 μM each (4 wells per compound), as well at 10 μM calcimycin for neg. control, and DMSO only for mock treatment. Following a 1-2 hour incubation, plates were imaged on a ArrayScan XTI (Thermo Fisher). Mitochondrial motility data was extrapolated from imaging data using a MATLAB and CellProfiler based computational pipeline. […] The experiment was repeated twice in different weeks. In the second week, TMRE was added to all wells after imaging was completed (20 min, then 2 washes) and imaged to measure mitochondrial membrane potential in order to determine mitochondrial and cell health.

[3] = target: T1, p38a (MAPK14) (Homo sapiens, UniProt Q16539); assay: Single-cell p38a activity reporter assay (RPE1-p38 KTR); type: cell-based; details: 1 μM, confirmed at 10 μM; 48 hours; RPE1 cells
T1 construct: tested for their influence on p38a activity using the RPE1-p38 kinase translocation reporter (KTR) line; endogenous in cells; host or cells: RPE1-p38KTR cells
Procedure: Cell Painting profiles for two wild-type variants of p38a (MAPK14) were averaged to create a p38a Cell Painting profile. 20 compounds whose Cell Painting profile correlated positively or negatively to that of p38a overexpression were selected in addition to 14 “non-correlated compounds” defined as having an absolute value of correlation of less than 0.2 as negative/neutral controls. The compounds were tested for their influence on p38a activity using the RPE1-p38 kinase translocation reporter (KTR) line that was previously generated. This cell line has been tested and confirmed to be negative for mycoplasma contamination, but not necessarily authenticated. P38 activity is measured by phosphorylation of its substrate, MEF2C, which is preferentially phosphorylated by p38 α, while p380 and p386 contribute less. RPE1-p38KTR cells were cultured in DMEM/F12 medium supplemented with 10% Fetal Bovine Serum at 37C in a humidified atmosphere with 5% CO2. 1000 cells were plated in 96-well plates and treated with 1p M or 10 μM of each compound (n=4 per concentration per compound, no replicates) for 48 hours. Only the middle 60 wells were used to prevent potential confounds from the edge effect. Cells were then fixed in 4% paraformaldehyde for 10 min, followed by permeabilization in cold methanol at −20C for 5 min. Cells were stained with 0.4 μg/mL Alexa Fluor 647 carboxylic acid, succinimidyl ester for 2 hr at RT, followed by 1 μg/mL DAPI for 10 min at RT to facilitate the segmentation of individual cells. p38a activity in single cells was calculated using the ratio of the median intensity of the p38-KTR in a 5-pixel-wide cytoplasmic ring around the nucleus to the median intensity of the p38-KTR in the nucleus. p38a activity measurements were normalized to DMSO conditions within the same plate. The Student's t-test Kolomogorov-Smirnov (KS) test was used to assess the score and significance of the single cell distributions of p38a activity for each compound relative to control. […] When reporting hits from this assay, KS test and t-test p-values were adjusted to control the false discovery rate using the Benjamini-Hochberg method, using the p.adjust method=‘BH” in R.

[4] = tested on: YAP1 overexpression in U2OS cells; assay: Cell Painting morphological profile matching to YAP1/TAZ overexpression signature; type: cell-based, human; details: for Corr. to YAP1 cluster: Pearson correlation of Cell Painting signatures, U2OS cells
Source text: (§1) Of these, analysis of the 220 constructs that were most closely representative of the annotated full-length transcripts was prioritized. […] Not all genes are likely to impact cellular morphology given the limitation of the experiment; using a single cell line at a single time point under a single set of conditions and stained with six fluorescent labels.
FIG. 2 provides an example characterization of matching the morphological signature of a gene query to the signature(s) of compounds in a library. Connections which show both positive and negative large correlations are considered as matches.
(§2) This standardization was done plate wise, based on the mean and standard deviation of the controls at profile level for the compound dataset. […] The signatures were then obtained by averaging the replicate profiles feature-wise. Pearson correlation was used on the aligned signatures of a gene and compound to score their connection.

[5] = tested on: TRAF2 overexpression in U2OS cells; assay: Cell Painting morphological profile matching to TRAF2 overexpression; type: cell-based, human; details: for Corr. to TRAF2: Pearson correlation of Cell Painting signatures, U2OS cells
Source text: as §1, §2

[6] = tested on: U2OS cells; assay: Cell count in U2OS Cell Painting images; type: cell-based, human; details: for Avg. Cell Count z-score: U2OS Cell Painting
Source text: as §1, §2

[7] = tested on: H9 human pluripotent stem cells; assay: qPCR of YAP1, CTGF and CYR61 in H9 hPSCs; type: cell-based; details: 24 hrs
Procedure: H9 hPSCs (WiCell) were maintained on vitronectin (Thermo Fisher)-coated plates in Essential 8 (E8) medium. The cells were routinely passaged using 0.5 mM EDTA and treated with 5 μM Y-27632 dihydrochloride (Tocris) on the first day. For testing the effects of the small molecules, H9 hPSCs were seeded at 50K cells/cm^2 on vitronectin-coated plates in E8 medium supplemented with 5 μM Y-27632 dihydrochloride (day 0). On day 1, the medium was switched to E8 medium. On day 2, the medium was switched to E8 medium supplemented with the small molecules. Following overnight incubation, the cells were collected for subsequent analysis on day 3.
The RNA was extracted using TRIzol (Life Technologies) and Direct-zol™ RNA MiniPrep kit (Zymo Research) as per manufacturer instructions. The RNA was reverse transcribed using iScript cDNA synthesis kit (Bio-Rad). The qPCR was performed on CFX Connect (Bio-Rad) using iTaq Universal SYBR Green Supermix (Bio-Rad). GAPDH was used as a reference gene for normalization. The relative gene expression levels were determined using the ddCt method.

[8] = tested on: KP230 cells; assay: Proliferation assay, KP230 cells; type: cell-based, mouse; details: 10 μM daily for 72 hours
Source text: YAP1 cell culture and treatments: Eisinger lab: Murine KP230 cells, a Yap1-dependent cancer cell line, were derived from a tumor from the KP mouse model (Kras^G12/D; Trp53^f/fl), as described in Eisinger-Mathason, T. S. K. et al., Proc. Natl. Acad. Sci. U.S.A 112 (2015): E3402-11, which is hereby incorporated by reference in its entirety. STS-109 UPS cells were derived from a human UPS tumor and validated by Rebecca Gladdy, MD (Sinai Health System, Toronto, Ontario, Canada). TC32 cells were a gift from Patrick Grohar, MD, PhD (Children's Hospital of Philadelphia). HT-1080, HCT-116, and HEK293T cells were purchased from ATCC. KP230, HT-1080, and HEK-293T cells were grown in DMEM with 10% FBS, 1% L-glutamine, and 1% penicillin/streptomycin (P/S). STS-109 cells were cultured in DMEM with 20% FBS, 1% L-glutamine, and 1% P/S. TC32 cells were grown in RPMI with 10% FBS, 1% L-glutamine, and 1% P/S. HCT-116 cells were cultured in McCoy's 5A medium with 10% FBS and 1% P/S. All cells were confirmed to be negative for mycoplasma contamination and were maintained in an incubator at 37C with 5% CO2. For experimental purposes, cells were cultured for up to 20 passages before being discarded, and were grown to approximately 50% confluence to circumvent the effects of high cell density on Yap1 expression and activity. All cell lines in the Eisinger laboratory were treated with 10 μM of each inhibitor or an equivalent volume of DMSO every 24 hours for 3 days, except for STS-109 cells, which were treated daily for 8 days.
NB4A treatment: Cells were treated with 10 μM of each inhibitor or an equivalent volume of DMSO every 24 hours for 3-8 days, and counted with a hemocytometer with trypan blue exclusion daily (KP230, HT-1080, TC32, HCT-116), or every 2 days (STS-109).

[9] = tested on: murine periosteal cells; assay: qPCR of Yap1 and Cyr61 in murine periosteal cells; type: cell-based, mouse; details: 5 μM
Procedure: Murine periosteal cells were isolated from a transgenic mouse model (CMV-Cre; R26R-rtTA^fl; tetO-YAP^S127A) in which YAP1 can be activated in a doxycycline inducible manner (Camargo 2011). This mouse model expresses a mutant form of YAP1 (YAP^S127A) that escapes degradation. Cells were cultured in a-MEM with 15% Fetal Bovine serum (S11550, R&D Systems), 1% GlutaMAX-I (Gibco, 35050-061) and 1% Penicillin/Streptomycin (Gibco, 15140-122).
To induce YAP^S127A, […] doxycycline was added to the cell culture medium for 48 hours. This was used as a positive control to compare YAP1 mRNA expression. Cells were also treated with BRD-K34692511-001-01-9 at 5 μM. mRNA was isolated from cells (n=3/group/time point) at 1, 4 or 48 hours after treatment using Qiagen RNeasy Mini kit (Qiagen, 74106). cDNA was prepared as per the manufacturer's protocol using the High-Capacity Reverse Transcription kit (Thermofisher scientific, 4368814). qPCR analysis was performed using the QuantStudio 6 Pro Real-Time PCR System.

[10] = tested on: HEK293, HepG2, A549 cells; details: per PubChem; cited from earlier work
[11] = target: PAX8 (Homo sapiens, UniProt Q06710); details: per PubChem; cited from earlier work
Sequence of PAX8 (Q06710 whole entry, species assumed): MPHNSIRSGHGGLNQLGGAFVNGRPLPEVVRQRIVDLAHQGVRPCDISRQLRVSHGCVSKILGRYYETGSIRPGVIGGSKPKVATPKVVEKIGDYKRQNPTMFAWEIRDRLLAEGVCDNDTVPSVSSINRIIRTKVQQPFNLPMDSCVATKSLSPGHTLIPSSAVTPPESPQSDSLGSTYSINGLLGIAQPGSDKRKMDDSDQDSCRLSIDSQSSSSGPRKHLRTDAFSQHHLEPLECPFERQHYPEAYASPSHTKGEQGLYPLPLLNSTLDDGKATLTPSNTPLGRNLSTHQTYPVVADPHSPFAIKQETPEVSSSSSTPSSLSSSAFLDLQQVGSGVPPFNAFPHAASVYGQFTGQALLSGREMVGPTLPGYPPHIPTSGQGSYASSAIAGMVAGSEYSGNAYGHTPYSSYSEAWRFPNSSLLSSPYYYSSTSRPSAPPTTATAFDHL

T1 sequence (Q16539 whole entry): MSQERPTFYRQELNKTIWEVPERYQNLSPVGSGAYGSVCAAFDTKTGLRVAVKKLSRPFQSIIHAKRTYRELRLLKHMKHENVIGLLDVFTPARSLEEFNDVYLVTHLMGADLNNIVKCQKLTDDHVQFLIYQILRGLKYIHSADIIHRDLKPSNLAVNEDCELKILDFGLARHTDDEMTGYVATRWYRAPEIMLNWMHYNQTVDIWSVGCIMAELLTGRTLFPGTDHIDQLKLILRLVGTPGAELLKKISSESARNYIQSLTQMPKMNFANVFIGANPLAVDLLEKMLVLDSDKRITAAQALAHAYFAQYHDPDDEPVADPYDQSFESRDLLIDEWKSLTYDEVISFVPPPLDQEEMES

Question: With CC(C)(C)n1nc(-c2cccc3ccccc23)c2c(N)ncnc21 [BRD-K29542628, 1-(tert-Butyl)-3-(naphthalen-1-yl)-1H-pyrazolo[3,4-d]pyrimidin-4-amine] as the compound, how does the PPARG reporter activity [1] read?
Answer: active in the PPARG reporter assay

Question: What about the “TMRE staining (mitochondrial membrane potential)” value [2] of the same compound?
Answer: normal levels of TMRE staining

Question: With CCCCNc1cc(C(=O)O)cc(S(N)(=O)=O)c1Oc1ccccc1 [BRD-K38197229, 3-(butylamino)-4-phenoxy-5-sulfamoylbenzoic acid] as the compound, how does the p38a activity [3] read?
Answer: potential inhibitors

Question: Which “TMRE staining (mitochondrial membrane potential)” value [2] does the source give for CC(C)(C)n1nc(-c2ccc(Cl)cc2)c2c(N)ncnc21 [BRD-K95785537, 1-(tert-butyl)-3-(4-chlorophenyl)-1H-pyrazolo[3,4-d]pyrimidin-4-amine] here?
Answer: normal levels of TMRE staining

Question: For Cc1ccc(-c2nn(C(C)(C)C)c3ncnc(N)c23)cc1 [PP1, reference compound], which PPARG reporter activity [1] is on record?
Answer: reporter activation

Question: Which p38a activity [3] does the source give for Nc1nc(Nc2ccccc2)nc2c1ncn2C1OC(CO)C(O)C1O (stereo not shown) [BRD-A64933752, 2-(6-amino-2-anilinopurin-9-yl)-5-(hydroxymethyl)oxolane-3,4-diol] here?
Answer: potential inhibitors

Question: Which “Cell Painting profile correlation with YAP1 overexpression” value [4] does the source give for CO[C@@H]1CN(C)C(=O)c2cc(NC(=O)Nc3ccc(C(F)(F)F)cc3)ccc2OC[C@@H](C)NC[C@@H]1C [BRD-K34692511, 1-[(4R,7S,8S)-8-methoxy-4,7,10-trimethyl-11-oxo-2-oxa-5,10-diazabicyclo[10.4.0]hexadeca-1(12),13,15-trien-14-yl]-3-[4-(trifluoromethyl)phenyl]urea] here?
Answer: −0.45

Question: And the “Corr. to YAP1 cluster” value [4]?
Answer: −0.4398

Question: What about the “Cell Painting profile correlation with TRAF2 overexpression” value [5] of the same compound?
Answer: 0.29

Question: What about the “Corr. to TRAF2” value [5] of the same compound?
Answer: 0.2869

Question: And the “proliferation in the U2OS Cell Painting images” value [6]?
Answer: had none of these impacts

Question: And the “Avg. Cell Count z-score” value [6]?
Answer: 0.478

Question: What about the “mRNA levels of hippo pathway members (YAP1, CTGF, CYR61)” value [7] of the same compound?
Answer: did not dramatically impact

Question: And the proliferation [8]?
Answer: inhibited KP230 cell proliferation

Question: And the “mRNA levels of Yap1 and Cyr61” value ([9]; 1 and 4 hours)?
Answer: not at 1 and 4 hours

Question: What about the “mRNA levels of Yap1 and Cyr61” value ([9]; 48 hours) of the same compound?
Answer: substantially upregulated

Question: What about the “AC50, inhibition of cell proliferation” value [10] of the same compound?
Answer: had none of these impacts

Question: What about the PAX8 inhibition [11] of the same compound?
Answer: had none of these impacts

Question: Which p38a activity [3] does the source give for Oc1ccc(-c2nc(-c3ccc(F)cc3)c(-c3ccncc3)[nH]2)cc1 [SB202190, 4-(4-(4-fluorophenyl)-5-(pyridin-4-yl)-1H-imidazol-2-yl)phenol, reference compound] here?
Answer: suppressed p38a activity

Question: With CN1c2cc3c(cc2N=C(c2ccc(C(=O)O)cc2)c2ccccc21)C(C)(C)CCC3(C)C [BRD-K06593056, 4-(5,7,7,10,10-pentamethyl-8,9-dihydronaphtho[2,3-b][1,4]benzodiazepin-13-yl)benzoic acid] as the compound, how does the “Corr. to YAP1 cluster” value [4] read?
Answer: 0.4357

Question: What about the “Corr. to TRAF2” value [5] of the same compound?
Answer: −0.4512

Question: What about the “Avg. Cell Count z-score” value [6] of the same compound?
Answer: −0.7909

Question: Which “Corr. to YAP1 cluster” value [4] does the source give for O=C(C[C@@H]1C[C@H]2c3cc(NC(=O)C4CCC4)ccc3O[C@H]2[C@H](CO)O1)NCc1ccccn1 [BRD-K28043081, N-[(1S,3S,4aS,9aR)-1-(hydroxymethyl)-3-[2-oxo-2-(pyridin-2-ylmethylamino)ethyl]-3,4,4a,9a-tetrahydro-1H-pyrano[3,4-b][1]benzofuran-6-yl]cyclobutanecarboxamide] here?
Answer: 0.527

Question: What about the “Corr. to TRAF2” value [5] of the same compound?
Answer: −0.406

Question: And the “Avg. Cell Count z-score” value [6]?
Answer: −0.5533

Question: With COC1(C[S@@+]([O-])c2ccccc2)CCN(CCc2c[nH]c3ccc(F)cc23)CC1 [BRD-K52394958, 5-Fluoro-3-[2-[4-methoxy-4-[[(R)-phenylsulfinyl]methyl]piperidin-1-yl]ethyl]-1H-indole] as the compound, how does the p38a activity [3] read?
Answer: identified via an alternative statistical test

Question: Which results are given for CCc1cc(-c2n[nH]c(C)c2-c2ccc3c(c2)OCCO3)c(O)cc1O [BRD-K65503129, 4-[4-(2,3-dihydro-1,4-benzodioxin-6-yl)-5-methyl-1H-pyrazol-3-yl]-6-ethylbenzene-1,3-diol]?
Answer: PPARG reporter activity ([1]; listed as B09): active in the PPARG reporter assay; PPARG reporter activity ([1]; listed as CCT018159): inhibited reporter activity

Question: Which results are given for CCCCCCCCCCCCCC(=O)O[C@@H]1[C@@H](C)[C@@]2(O)[C@@H](C=C(CO)C[C@]3(O)C(=O)C(C)=C[C@@H]23)[C@@H]2C(C)(C)[C@]12OC(C)=O [BRD-K68552125, 12-O-Tetradecanoylphorbol-13-acetate]?
Answer: PPARG reporter activity ([1]; listed as A06): active in the PPARG reporter assay; PPARG reporter activity ([1]; listed as Phorbol 12-myristate 13-acetate): inhibited reporter activity; TMRE staining (mitochondrial membrane potential) [2]: normal levels of TMRE staining

Question: With O=c1c(-c2ccc(O)cc2)coc2cc(O)ccc12 [BRD-K42095107, 7-hydroxy-3-(4-hydroxyphenyl)chromen-4-one] as the compound, how does the “Corr. to YAP1 cluster” value [4] read?
Answer: 0.4583

Question: And the “Corr. to TRAF2” value [5]?
Answer: −0.372

Question: And the “Avg. Cell Count z-score” value [6]?
Answer: −0.8813
